Earlier results on 1 compound are cited in patent US20180243207A1, “DUAL-RELEASE FLEXIBLE F[…] IN […] HOSPICE CARES OF ELDERLY PATIENTS” (priority 2017, published 2018).

Data set [1] has as its target T1, α3-GABAA receptors (Homo sapiens, UniProt P18507+P34903).
T1 sequence (P34903 29-492): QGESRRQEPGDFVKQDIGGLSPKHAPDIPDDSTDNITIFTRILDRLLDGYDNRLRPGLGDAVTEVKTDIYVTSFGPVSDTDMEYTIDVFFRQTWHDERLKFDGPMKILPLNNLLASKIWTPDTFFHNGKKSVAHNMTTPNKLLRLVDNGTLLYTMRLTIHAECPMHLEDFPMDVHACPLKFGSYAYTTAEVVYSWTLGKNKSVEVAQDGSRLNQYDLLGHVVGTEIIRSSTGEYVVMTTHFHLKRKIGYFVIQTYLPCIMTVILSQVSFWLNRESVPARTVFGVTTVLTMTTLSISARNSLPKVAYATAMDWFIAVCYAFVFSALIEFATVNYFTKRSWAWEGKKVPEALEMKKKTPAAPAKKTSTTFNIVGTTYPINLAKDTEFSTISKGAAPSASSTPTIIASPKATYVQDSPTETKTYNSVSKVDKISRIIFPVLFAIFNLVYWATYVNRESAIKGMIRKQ
T1 sequence (P18507 40-467 limits assumed): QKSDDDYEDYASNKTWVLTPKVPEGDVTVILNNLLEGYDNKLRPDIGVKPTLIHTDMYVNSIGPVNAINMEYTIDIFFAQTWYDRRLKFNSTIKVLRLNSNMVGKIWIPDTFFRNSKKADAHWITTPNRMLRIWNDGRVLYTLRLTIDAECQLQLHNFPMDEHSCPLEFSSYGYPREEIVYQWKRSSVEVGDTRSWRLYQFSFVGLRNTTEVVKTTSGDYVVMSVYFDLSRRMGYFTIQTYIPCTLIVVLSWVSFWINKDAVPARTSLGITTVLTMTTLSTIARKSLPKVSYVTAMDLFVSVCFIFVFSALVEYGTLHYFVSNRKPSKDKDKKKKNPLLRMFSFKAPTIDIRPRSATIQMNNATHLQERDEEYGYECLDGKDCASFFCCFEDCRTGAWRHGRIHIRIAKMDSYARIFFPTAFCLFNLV
T1 sequence (P28472 26-473 partner): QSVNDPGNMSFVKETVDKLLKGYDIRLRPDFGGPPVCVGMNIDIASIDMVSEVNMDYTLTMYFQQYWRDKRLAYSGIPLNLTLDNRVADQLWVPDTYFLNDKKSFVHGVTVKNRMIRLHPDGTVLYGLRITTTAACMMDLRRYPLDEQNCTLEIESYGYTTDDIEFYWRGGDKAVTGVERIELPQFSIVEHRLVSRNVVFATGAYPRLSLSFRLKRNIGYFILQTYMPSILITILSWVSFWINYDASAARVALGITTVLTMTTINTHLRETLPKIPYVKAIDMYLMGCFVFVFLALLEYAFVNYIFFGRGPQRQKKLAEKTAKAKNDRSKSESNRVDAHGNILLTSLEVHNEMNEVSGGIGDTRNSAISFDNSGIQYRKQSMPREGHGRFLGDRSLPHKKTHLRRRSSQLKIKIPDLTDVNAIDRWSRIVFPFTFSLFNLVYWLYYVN

The target of data set [2] is T2, α2-GABAA receptors (Homo sapiens, UniProt P18507+P47869).
T2 sequence (P47869 29-451): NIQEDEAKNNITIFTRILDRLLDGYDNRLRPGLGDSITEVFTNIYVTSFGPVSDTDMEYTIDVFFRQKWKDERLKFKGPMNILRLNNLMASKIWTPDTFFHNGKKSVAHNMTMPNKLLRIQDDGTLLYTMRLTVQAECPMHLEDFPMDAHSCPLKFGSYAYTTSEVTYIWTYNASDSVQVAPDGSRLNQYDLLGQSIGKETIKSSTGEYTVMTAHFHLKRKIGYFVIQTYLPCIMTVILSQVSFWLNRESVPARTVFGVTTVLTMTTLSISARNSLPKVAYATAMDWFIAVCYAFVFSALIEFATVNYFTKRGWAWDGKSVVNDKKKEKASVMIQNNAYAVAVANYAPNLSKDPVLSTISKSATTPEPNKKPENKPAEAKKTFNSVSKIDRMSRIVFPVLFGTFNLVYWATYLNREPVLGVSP
T2 sequence (P18507 40-467 limits assumed): T1 sequence (P18507 40-467 limits assumed)
T2 sequence (P28472 26-473 partner): T1 sequence (P28472 26-473 partner)

`O=C1Nc2ccc(Cl)cc2C(c2ccccc2Cl)=NC1O` (centres unmarked) [Lorazepam]: in data set [1], the “affinity to α3-GABAA receptors” value is on record as “high”. In addition, in data set [2], the “affinity to α2-GABAA receptors” value is listed as “intermediate”.
